Patent US9139795B2, “Biodegradable lubricant composition” (IDEMITSU KOSAN CO., LTD., priority 2009, dated 2015)

Experiments:
[1] = Acid value (JIS K 2501); assay type: physicochemical; settings: base oil ester
[2] = Kinematic viscosity (JIS K 2283); assay type: physicochemical; settings: base oil ester
[3] = Saponification value (JIS K 2503); assay type: physicochemical; settings: base oil ester
[4] = Biodegradability, modified MITI test method (OECD301C); settings: base oil ester alone
Experimental: A biodegradation rate was measured according to the modified MITI test method (OECD301C).

Row | Substance | Acid Value [1] | Viscosity @ 40° C. [2] | Saponification Value [3] | Biodegradability [4]
1 | di(pentaerythritol)oleate [Ester E] | 3.30 mgKOH/g | 556.8 mm^2/s | 172 mgKOH/g | –
2 | trimethylolpropane diisostearate [Ester G] | 0.06 mgKOH/g | 105.0 mm^2/s | 176 mgKOH/g | 65.0%
